Source: US20140221639A1, “RADIOLABELED NUCLEOSIDE ANALOGUE, AND PREPARATION METHOD AND USE THEREOF” (Institute of Nuclear Energy Research Atomic Energy Council, …, priority 2011, published 2014)
Several values for one entry are separate records, joined by “and”; a condition that tells them apart may be missing. Equal values may be shown once.

Tests used:
LL/2 cells = assay: Cellular uptake test (ratio of cell to medium); assay type: cell-based; conditions: 1, 2, 4 and 8 h
Method: (§1) 2×10^6 cells was inoculated in a 15 cm^2 dish containing 14 mL medium supplemented with 10% FBS. […] At specified time points (using I-131 tracer at 1, 2, 4 and 8_h), the cells on the dish was harvested by using a cell scraper. Then, a cell suspension was transferred to a 15 mL centrifuge tube and centrifuged (at 3500 rpm) for 2 min. After centrifugation, 100 μL centrifugate was collected to a preweighed counting tube and directly poured into a maintained medium. Cell pellets were frozen with dry ice, and further collected into another weighed counting tube. […] Accumulation of activity of radioactive trancer in cell in vitro is represented by a radio of cell to medium:
(§2) Uptake experimental results of the two radioactive nucleoside analogues [^131I]IUdR and [^131I]ICdR in cells are as shown in FIGS. 4((a), (b)).

NG4TL4 cells = assay: Cellular uptake test (ratio of cell to medium); assay type: cell-based; conditions: 1, 2, 4 and 8 h
Method: as §1, §2

NG4TL4 sarcoma cells = assay: Study on incorporation in DNA; assay type: cell-based; conditions: 1 μCi/mL medium, 0.5-8 h
Method: DNA was extracted with Genomic DNA Mini Kit (Geneaid Biotech Ltd., Taiwan). NG4TL4 cell lines were harvested and inoculated into a petri dish at 2×10^6. […] At 0.5, 1, 2, 4 and 8 h after incubation, the medium was removed, and the cells was washed two times with ice-cold PBS, and then sheared with trypsin and collected to a centrifuge tube for centrifugation (at […] for 1 min). The supernatant was removed, while 50 μL remaining buffer was left to keep the cells in suspension. 300 μL cell lysis buffer was added to the sample and uniformly mixed, the cells was cultured in a water bath at 60° C. for a sereral minutes till the solution was transparent (the sample was inversed once every 3 min). 2 μL RNAse (25 mg/mL) was added to the sample and uniformly mixed, after 5-min incubation at room temperature, 100 μL protein removal buffer was added to the sample, uniformly mixed immediately, and centrifuged for 3 min at full speed (14000 rpm) after 5-min incubation on ice. The resulting solution was transferred as a suspension to another tube, and isopropanol was added and thoroughly mixed. […] In the test, DNA purity was determined at absorption wavelengths of 260 nm and 280 nm, and the ratio of absorbances (OD260/OD280) was about 1.7.

[1] = Analysis of metabolites in blood and urine through NP-TLC; assay type: in vivo, FVB/N mice; conditions: NP-TLC EA/EtOH = 5/1
Method: Blood samples were obtained by heart puncture, and then centrifuged at 13,000 rpm for 10 min. Then, the supernatant (about 300 μL) was placed in a 1.5 mL centrifuge tube containing equal amount of ethanol, and then centrifuged again to obtain the serum.

NG4TL4-WT tumor = assay: Biodistribution study in tumor-bearing mice; assay type: in vivo, FVB/N mice; conditions: for Biodistribution Blood / Biodistribution Bone / Biodistribution Brain / Biodistribution Heart / Biodistribution Kidney / Biodistribution Large Intestine / Biodistribution Liver / Biodistribution Lung / Biodistribution Marrow / Biodistribution Muscle / Biodistribution Pancreas / Biodistribution Small Intestine / Biodistribution Spleen / Biodistribution Stomach / Biodistribution Tumor / T/B (aggregation ratio of tumor to blood) / T/M (tumor-muscle aggregation ratio): 80~90 μCi tail vein, FVB/N mice with NG4TL4-WT tumor
Description: […] Tumor and 13 other tissures (blood, heart, lung, liver, stomach, small intestine, large intestine, spleen, pancreas, kidney, bone, marrow, and muscle) were removed, rinsed, weighed, and determined for radioactivity with a γ scintilation counter. Uptake of the radioactive trancers in the tissues (counts per min) was calibrated against decay, normalizedto sample weight, and expressed as percentages of injected dosage per gram of tissue (% ID/g) and aggregation ratio of tumor to blood.

[2] = mouse, in vivo, iv
[3] = 0.25 h after ^131I-ICdR at tail vein
[4] = 1 h after ^131I-ICdR at tail vein
[5] = 2 h after ^131I-ICdR at tail vein

In the case of `Nc1nc(=O)n([C@H]2C[C@H](O)[C@@H](CO)O2)cc1[131I]` [^131I-ICdR], the “uptake value over time” value (LL/2 cells) is reported as “continuously increased with time”, the “uptake value over time” value (NG4TL4 cells) is reported as “continuously increased with time” and the “incorporation into cells / radioactive accumulation in DNA with time” value (NG4TL4 sarcoma cells) is reported as “linearly incorporated”. The “^131I-ICdR (%) in Blood” value [1, 3] was 63.10 ± 1.17%, the “^131I-ICdR (%) in Urine” value [1, 3] was 56.49 ± 6.58% and the “^131I-IUdR (%) in Blood” value [1, 3] was 18.62 ± 2.25%. The “^131I-IUdR (%) in Urine” value [1, 3] was 3.19 ± 1.03%, the “^131I-I^- (%) in Blood” value [1, 3] was 18.28 ± 3.39% and the “^131I-I^- (%) in Urine” value [1, 3] was 40.32 ± 6.18%. For the same compound, the “^131I-compound (unknown) (%) in Blood” value [1, 3] was 0%, the “^131I-compound (unknown) (%) in Urine” value [1, 3] was 0% and the “^131I-ICdR (%) in Blood” value [1, 4] was 72.2% and 72.16 ± 3.66%. The “^131I-ICdR (%) in Urine” value [1, 4] was 71.0% and 71 + 0.26%, the “^131I-IUdR (%) in Blood” value [1, 4] was 0% and the “^131I-IUdR (%) in Urine” value [1, 4] was 0%. For the same compound, the “^131I-I^- (%) in Blood” value [1, 4] was 14.11 ± 6.15%, the “^131I-I^- (%) in Urine” value [1, 4] was 26.54 ± 0.34% and the “^131I-compound (unknown) (%) in Blood” value [1, 4] was 13.73 ± 1.38%. For the same compound, the “^131I-compound (unknown) (%) in Urine” value [1, 4] was 2.46 ± 0.08%, the “^131I-ICdR (%) in Blood” value [1, 5] was 67.77 ± 7.33% and the “^131I-ICdR (%) in Urine” value [1, 5] was 81.1 ± 8.86%. For the same compound, the “^131I-IUdR (%) in Blood” value [1, 5] was 0%, the “^131I-IUdR (%) in Urine” value [1, 5] was 0% and the “^131I-I^- (%) in Blood” value [1, 5] was 19 + 5.90%. For the same compound, the “^131I-I^- (%) in Urine” value [1, 5] was 15.37 ± 7.67%, the “^131I-compound (unknown) (%) in Blood” value [1, 5] was 13.23 ± 1.97% and the “^131I-compound (unknown) (%) in Urine” value [1, 5] was 3.53 ± 1.96%. The “Biodistribution Blood” value (NG4TL4-WT tumor; 1 h) was 6.21 ± 1.11 % ID/g, the “Biodistribution Bone” value (NG4TL4-WT tumor; 1 h) was 0.96 ± 0.13 % ID/g and the “Biodistribution Brain” value (NG4TL4-WT tumor; 1 h) was 0.25 ± 0.03 % ID/g. For the same compound, the “Biodistribution Heart” value (NG4TL4-WT tumor; 1 h) was 1.45 + 0.14 % ID/g, the “Biodistribution Kidney” value (NG4TL4-WT tumor; 1 h) was 3.96 ± 0.39 % ID/g and the “Biodistribution Large Intestine” value (NG4TL4-WT tumor; 1 h) was 2.92 ± 0.18 % ID/g. For the same compound, the “Biodistribution Liver” value (NG4TL4-WT tumor; 1 h) was 2.05 ± 0.20 % ID/g, the “Biodistribution Lung” value (NG4TL4-WT tumor; 1 h) was 3.52 ± 0.48 % ID/g and the “Biodistribution Marrow” value (NG4TL4-WT tumor; 1 h) was 3.29 ± 0.08 % ID/g. The “Biodistribution Muscle” value (NG4TL4-WT tumor; 1 h) was 0.85 ± 0.04 % ID/g, the “Biodistribution Pancreas” value (NG4TL4-WT tumor; 1 h) was 2.81 ± 0.42 % ID/g and the “Biodistribution Small Intestine” value (NG4TL4-WT tumor; 1 h) was 4.79 ± 0.41 % ID/g. For the same compound, the “Biodistribution Spleen” value (NG4TL4-WT tumor; 1 h) was 4.03 ± 0.55 % ID/g, the “Biodistribution Stomach” value (NG4TL4-WT tumor; 1 h) was 17.07 + % ID/g and the “Biodistribution Tumor” value (NG4TL4-WT tumor; 1 h) was 3.46 ± 0.07 % ID/g. For the same compound, the “T/B (aggregation ratio of tumor to blood)” value (NG4TL4-WT tumor; 1 h) was 0.56, the “T/M (tumor-muscle aggregation ratio)” value (NG4TL4-WT tumor; 1 h) was 4.07 and the “Biodistribution Blood” value (NG4TL4-WT tumor; 2 h) was 3.76 ± 0.13 % ID/g. For the same compound, the “Biodistribution Bone” value (NG4TL4-WT tumor; 2 h) was 0.71 ± 0.19 % ID/g, the “Biodistribution Brain” value (NG4TL4-WT tumor; 2 h) was 0.15 ± 0.03 % ID/g and the “Biodistribution Heart” value (NG4TL4-WT tumor; 2 h) was 1.14 + 0.01 % ID/g. For the same compound, the “Biodistribution Kidney” value (NG4TL4-WT tumor; 2 h) was 2.36 ± 0.06 % ID/g, the “Biodistribution Large Intestine” value (NG4TL4-WT tumor; 2 h) was 2.54 ± 0.33 % ID/g and the “Biodistribution Liver” value (NG4TL4-WT tumor; 2 h) was 1.43 ± 0.09 % ID/g. For the same compound, the “Biodistribution Lung” value (NG4TL4-WT tumor; 2 h) was 2.72 ± 0.17 % ID/g, the “Biodistribution Marrow” value (NG4TL4-WT tumor; 2 h) was 3.58 ± 1.12 % ID/g and the “Biodistribution Muscle” value (NG4TL4-WT tumor; 2 h) was 0.61 ± 0.05 % ID/g. For the same compound, the “Biodistribution Pancreas” value (NG4TL4-WT tumor; 2 h) was 2.08 ± 0.08 % ID/g, the “Biodistribution Small Intestine” value (NG4TL4-WT tumor; 2 h) was 4.79 ± 0.45 % ID/g and the “Biodistribution Spleen” value (NG4TL4-WT tumor; 2 h) was 3.07 ± 0.09 % ID/g. The “Biodistribution Stomach” value (NG4TL4-WT tumor; 2 h) was 14.99 ± 4.04 % ID/g, the “Biodistribution Tumor” value (NG4TL4-WT tumor; 2 h) was 3.78 ± 0.07 % ID/g and the “T/B (aggregation ratio of tumor to blood)” value (NG4TL4-WT tumor; 2 h) was 1.00. The “T/M (tumor-muscle aggregation ratio)” value (NG4TL4-WT tumor; 2 h) was 6.16, the “Biodistribution Blood” value (NG4TL4-WT tumor; 4 h) was 3.40 ± 0.15 % ID/g and the “Biodistribution Bone” value (NG4TL4-WT tumor; 4 h) was 0.77 ± 0.07 % ID/g. For the same compound, the “Biodistribution Brain” value (NG4TL4-WT tumor; 4 h) was 0.12 ± 0.02 % ID/g, the “Biodistribution Heart” value (NG4TL4-WT tumor; 4 h) was 0.84 + 0.07 % ID/g and the “Biodistribution Kidney” value (NG4TL4-WT tumor; 4 h) was 2.07 ± 0.10 % ID/g. The “Biodistribution Large Intestine” value (NG4TL4-WT tumor; 4 h) was 2.88 ± 0.21 % ID/g, the “Biodistribution Liver” value (NG4TL4-WT tumor; 4 h) was 0.85 ± 0.01 % ID/g and the “Biodistribution Lung” value (NG4TL4-WT tumor; 4 h) was 2.28 ± 0.12 % ID/g. The “Biodistribution Marrow” value (NG4TL4-WT tumor; 4 h) was 3.82 ± 0.54 % ID/g, the “Biodistribution Muscle” value (NG4TL4-WT tumor; 4 h) was 0.51 ± 0.04 % ID/g and the “Biodistribution Pancreas” value (NG4TL4-WT tumor; 4 h) was 2.09 ± 0.13 % ID/g. The “Biodistribution Small Intestine” value (NG4TL4-WT tumor; 4 h) was 5.27 ± 0.39 % ID/g, the “Biodistribution Spleen” value (NG4TL4-WT tumor; 4 h) was 2.88 ± 0.13 % ID/g and the “Biodistribution Stomach” value (NG4TL4-WT tumor; 4 h) was 17.68 ± 0.74 % ID/g. The “Biodistribution Tumor” value (NG4TL4-WT tumor; 4 h) was 4.85 ± 0.17 % ID/g, the “T/B (aggregation ratio of tumor to blood)” value (NG4TL4-WT tumor; 4 h) was 1.43 and the “T/M (tumor-muscle aggregation ratio)” value (NG4TL4-WT tumor; 4 h) was 9.59. The “Biodistribution Blood” value (NG4TL4-WT tumor; 8 h) was 0.77 ± 0.10 % ID/g, the “Biodistribution Bone” value (NG4TL4-WT tumor; 8 h) was 0.11 ± 0.02 % ID/g and the “Biodistribution Brain” value (NG4TL4-WT tumor; 8 h) was 0.01 ± 0.00 % ID/g. For the same compound, the “Biodistribution Heart” value (NG4TL4-WT tumor; 8 h) was 0.19 + 0.03 % ID/g, the “Biodistribution Kidney” value (NG4TL4-WT tumor; 8 h) was 0.75 ± 0.02 % ID/g and the “Biodistribution Large Intestine” value (NG4TL4-WT tumor; 8 h) was 1.33 ± 0.06 % ID/g. The “Biodistribution Liver” value (NG4TL4-WT tumor; 8 h) was 0.38 ± 0.02 % ID/g, the “Biodistribution Lung” value (NG4TL4-WT tumor; 8 h) was 0.69 ± 0.16 % ID/g and the “Biodistribution Marrow” value (NG4TL4-WT tumor; 8 h) was 2.31 ± 0.10 % ID/g. The “Biodistribution Muscle” value (NG4TL4-WT tumor; 8 h) was 0.09 ± 0.01 % ID/g, the “Biodistribution Pancreas” value (NG4TL4-WT tumor; 8 h) was 0.38 ± 0.05 % ID/g and the “Biodistribution Small Intestine” value (NG4TL4-WT tumor; 8 h) was 2.06 ± 0.13 % ID/g. For the same compound, the “Biodistribution Spleen” value (NG4TL4-WT tumor; 8 h) was 2.77 ± 0.09 % ID/g, the “Biodistribution Stomach” value (NG4TL4-WT tumor; 8 h) was 2.85 ± 0.61 % ID/g and the “Biodistribution Tumor” value (NG4TL4-WT tumor; 8 h) was 2.32 ± 0.27 % ID/g. For the same compound, the “T/B (aggregation ratio of tumor to blood)” value (NG4TL4-WT tumor; 8 h) was 3.02, the “T/M (tumor-muscle aggregation ratio)” value (NG4TL4-WT tumor; 8 h) was 25.77 and the “excretion of drug and metabolites” value (NG4TL4-WT tumor; mice) was “mainly through the urinary system”. The “accumulation in organs (biodistribution and imaging)” value (NG4TL4-WT tumor; tumor-bearing mice) was “obviously accumulated in organs that rapidly proliferates” and the “CL (total body clearance)” value [2] was 3.90 ± 0.59 mL/h.
